Experimental data reported in patent US20100015709A1, “Regulating Stem Cell Differentiation By Controlling 2D and 3D Matrix Elasticity” (Trustees of the University of Pennsylvania, priority 2006, published 2010).
Values belong to the compound of their own block, whether it stands above or below them.

Experiments:
MSCs [1] = test: MSC morphology (branching, spindle factor, spreading) on collagen-coated gels; type: cell-based, human
Procedure: Cell Culture: Human Mesenchymal Stem Cells (MSCs; Osiris Therapeutics; Baltimore, Md. or Lonza), human osteoblasts (hFOBs; ATCC, Manassas, Va.), primary human skin fibroblasts (FC7) (Engler et al., 2004c, supra), and murine myoblasts (C2C12s; ATCC) were cultured in normal growth media, such as low glucose DMEM (Invitrogen) supplemented with 10% fetal bovine serum (FBS, Sigma) and 1% penicillin/streptomycin (Invitrogen) in regular tissue culture treated flasks (Corning). See also, U.S. Ser. No. 11/351,420. Media was exchanged every other day and cells were used up to passage number nine.
(§1) To inhibit proliferation, cells were exposed to mitomycin C (10 μg/ml) for 2 hr and washed three times with media prior to plating. Blebbistatin (50 μM; EMD Biosciences, Inc., San Diego, Calif.), a NMM II inhibitor, was applied with every media change and was stable in culture media for up to 48 hours, as determined by thin layer chromatography.
(§2) 1) Morphological Changes and Immunofluorescence: Changes in cell shape (<4 days), especially the development of neurite-like branches (Engler et al., 2004c, supra) or spindle-like morphologies (Flanagan et al., 2002, supra), were quantified either by the number of membrane branches per mm of cell or by a “spindle factor,” referring to the major cell axis/minor cell axis, respectively. […]

neuronal motility = details: at mM concentrations; cited from earlier work
[2] = Stability in culture media by thin layer chromatography; type: physicochemical; details: 50 μM
Procedure: as §1

MSCs [3] = test: Lineage marker expression (immunofluorescence, western blot, oligonucleotide array); type: cell-based, human; details: blebbistatin 50 μM
Procedure: as §2
Cells were fixed with formaldehyde, incubated in a 5% albumin blocking solution for 1 hour at 37° C., permeabilized with 0.5% Triton-X-100 and incubated overnight at 4° C. in 1:100 dilution of antibodies in PBS. […] Cell morphology and fluorescently labeled cells were examined on a TE300 inverted epi-fluorescent Nikon or Olympus (TIRF) microscope, imaged on a cascade CCD camera (PhotoMetrics, Huntington, Beach, Calif.), and quantified with Scion Image (Scion Corp., Frederick, Md.).
2) Western blotting: Cells (with or without blebbistatin treatment, 50 μM) were also plated on 45×50 mm coverslips to obtain enough cells for western blotting. […] Quantification of western blots was done by Scion Image software. […]

[4] = tested on: MSCs, C2C12-myoblasts, hFOB-osteoblasts; test: Creep-test micropipette aspiration, membrane cortical stiffness; type: cell-based
Procedure: Creep-test Micropipette Aspiration: Micropipettes were forged using a deFonbrune-type microforge (Vibratome, St. Louis, Mo.) to a radius of 2-3 μm with an approximately 25° pipette curvature so when mounted in micromanipulators (Nirishige; Japan) at an angle similar to the micropipette's curvature. The end of the pipette was flush with the cell edge. A step pressure drop was imposed on the cell membrane, causing the membrane projection, L, to aspirate into the pipette as a function of time (t), pressure drop (ΔP) and pipette radius (R), as governed by the Sato and coworkers' viscoelastic half-space model (Sato et al., J. Biomech. Eng. 112:263-268 (1990), herein incorporated by reference:
Images of the projection length were taken every 2 seconds in brightfield on a TE300 inverted Nikon microscope and cascade CCD camera (Photometrics), which allowed accurate fitting of the parameters κ, μ′, and τ to the data to determine the elastic and viscous moduli of each membrane.

[5] = tested on: MSCs, C2C12-myoblasts, hFOB-osteoblasts; test: Traction force measurement, cell pre-stress; type: cell-based; details: any matrix
From the text: Traction Force Measurements: Adhesive stresses, imposed on the matrix surface by an adherent cell, generate a displacement field from embedded beads within a soft substratum, which can be mapped on the cell if the gel can be approximated as a semi-infinite solid. Briefly, the well characterized traction force method (Butler et al., 2002, supra; Dembo et al., 1999, supra; Wang et al., 2002b, supra) uses bead displacements between images with, and without, the adherent cell to assemble a displacement field and determine Green's strain function given known material properties of the substratum (elastic modulus, Poisson's ratio, etc). The traction field was used to obtain the cell pre-stress, i.e., the net tensile force over the cell-matrix interface carried by the actin cytoskeleton across a cross-sectional area of the cell that balances cell traction forces (Wang et al., 2002b, supra).

MSCs [6] = test: 3D hydrogel sandwich overlay, cell morphology; type: cell-based, human; details: treated after the overlay procedure
Procedure: Hydrogel Sandwich Preparation: The whole procedure is performed in a biosafety cabinet to maintain sterility. All equipment used was either sterile or sterilized by UV treatment for one hour. To produce the sandwich-like structures, cells were cultured for a given time on regular 2D substrates supported by 25 mm aminosilanized cover slips, rinsed with PBS and dried of the bulk liquid. 35 μl of the hydrogel mixture was added immediately and the sample was covered with a hydrophobic chlorosilanized glass slip to create a homogenous overlay gel. After one hour the top cover slip was carefully removed and the sandwich rinsed with PBS to remove any unbound residues. Subsequently, the gels were incubated for two hours at 37° C./5.0% CO2 in media supplemented with 1.5% or 2% cysteine (w/v) or iodacetamide solution using a shaker to cap or inactivate any remaining free thiols. […]
Immuno-staining, fluorescence microscopy, and image analysis: Cells were fixed for five minutes in a 10% solution of formaldehyde (Sigma) in PBS (Gibco) and subsequently permeabilized with a 0.5% solution of TritonX 100 (Sigma) in PBS followed by rinsing in PBS. […]
Cell area A and spindle factor r (ratio of major to minor axis of a fitted ellipse) were determined using the built-in functions of ImageJ (available at http:rsb.info.nih.gov/ij; developed by Wayne Rasband, National Institutes of Health, Bethesda, Md.). […]

hMSCs = test: Nucleus morphology of hMSCs on gels; type: cell-based, human; details: 11 kPa substrates
Procedure: Immuno-staining, fluorescence microscopy, and image analysis: Cells were fixed for five minutes in a 10% solution of formaldehyde (Sigma) in PBS (Gibco) and subsequently permeabilized with a 0.5% solution of TritonX 100 (Sigma) in PBS followed by rinsing in PBS. Samples were then incubated in a 1:250 solution of the appropriate primary antibody in a 3% solution of BSA (Sigma) in PBS for at least 2 hours at room temperature on a rocker. To remove any unspecifically bound antibodies, the gels were incubated with a 0.5% solution of TritonX 100 for five minutes and rinsed with PBS twice, followed by incubation with secondary antibodies (1:250 in 3% BSA in PBS) and rhodamine-phalloidin (Sigma) for at least one hour on a rocker at room temperature. […]
Cell area A and spindle factor r (ratio of major to minor axis of a fitted ellipse) were determined using the built-in functions of ImageJ (available at http:rsb.info.nih.gov/ij; developed by Wayne Rasband, National Institutes of Health, Bethesda, Md.).
Since matrix elasticity not only influences cell and cytoskeleton morphology, but also the differentiation of hMSCs, and therefore global changes in patterns of gene expression, the morphology of the nucleus was analyzed in terms of projected area A and spindle factor of the projected area r to gain insight into the transduction of mechanical signals from the matrix to the nucleus. […]

NMM II ATPase = details: cited from earlier work
[7] = target: myosin light chain kinase (MLCK) (Homo sapiens, UniProt Q15746); details: at concentrations inhibiting NMM II ATPase; cited from earlier work
myosin light chain kinase (MLCK), sequence (Q15746 whole entry): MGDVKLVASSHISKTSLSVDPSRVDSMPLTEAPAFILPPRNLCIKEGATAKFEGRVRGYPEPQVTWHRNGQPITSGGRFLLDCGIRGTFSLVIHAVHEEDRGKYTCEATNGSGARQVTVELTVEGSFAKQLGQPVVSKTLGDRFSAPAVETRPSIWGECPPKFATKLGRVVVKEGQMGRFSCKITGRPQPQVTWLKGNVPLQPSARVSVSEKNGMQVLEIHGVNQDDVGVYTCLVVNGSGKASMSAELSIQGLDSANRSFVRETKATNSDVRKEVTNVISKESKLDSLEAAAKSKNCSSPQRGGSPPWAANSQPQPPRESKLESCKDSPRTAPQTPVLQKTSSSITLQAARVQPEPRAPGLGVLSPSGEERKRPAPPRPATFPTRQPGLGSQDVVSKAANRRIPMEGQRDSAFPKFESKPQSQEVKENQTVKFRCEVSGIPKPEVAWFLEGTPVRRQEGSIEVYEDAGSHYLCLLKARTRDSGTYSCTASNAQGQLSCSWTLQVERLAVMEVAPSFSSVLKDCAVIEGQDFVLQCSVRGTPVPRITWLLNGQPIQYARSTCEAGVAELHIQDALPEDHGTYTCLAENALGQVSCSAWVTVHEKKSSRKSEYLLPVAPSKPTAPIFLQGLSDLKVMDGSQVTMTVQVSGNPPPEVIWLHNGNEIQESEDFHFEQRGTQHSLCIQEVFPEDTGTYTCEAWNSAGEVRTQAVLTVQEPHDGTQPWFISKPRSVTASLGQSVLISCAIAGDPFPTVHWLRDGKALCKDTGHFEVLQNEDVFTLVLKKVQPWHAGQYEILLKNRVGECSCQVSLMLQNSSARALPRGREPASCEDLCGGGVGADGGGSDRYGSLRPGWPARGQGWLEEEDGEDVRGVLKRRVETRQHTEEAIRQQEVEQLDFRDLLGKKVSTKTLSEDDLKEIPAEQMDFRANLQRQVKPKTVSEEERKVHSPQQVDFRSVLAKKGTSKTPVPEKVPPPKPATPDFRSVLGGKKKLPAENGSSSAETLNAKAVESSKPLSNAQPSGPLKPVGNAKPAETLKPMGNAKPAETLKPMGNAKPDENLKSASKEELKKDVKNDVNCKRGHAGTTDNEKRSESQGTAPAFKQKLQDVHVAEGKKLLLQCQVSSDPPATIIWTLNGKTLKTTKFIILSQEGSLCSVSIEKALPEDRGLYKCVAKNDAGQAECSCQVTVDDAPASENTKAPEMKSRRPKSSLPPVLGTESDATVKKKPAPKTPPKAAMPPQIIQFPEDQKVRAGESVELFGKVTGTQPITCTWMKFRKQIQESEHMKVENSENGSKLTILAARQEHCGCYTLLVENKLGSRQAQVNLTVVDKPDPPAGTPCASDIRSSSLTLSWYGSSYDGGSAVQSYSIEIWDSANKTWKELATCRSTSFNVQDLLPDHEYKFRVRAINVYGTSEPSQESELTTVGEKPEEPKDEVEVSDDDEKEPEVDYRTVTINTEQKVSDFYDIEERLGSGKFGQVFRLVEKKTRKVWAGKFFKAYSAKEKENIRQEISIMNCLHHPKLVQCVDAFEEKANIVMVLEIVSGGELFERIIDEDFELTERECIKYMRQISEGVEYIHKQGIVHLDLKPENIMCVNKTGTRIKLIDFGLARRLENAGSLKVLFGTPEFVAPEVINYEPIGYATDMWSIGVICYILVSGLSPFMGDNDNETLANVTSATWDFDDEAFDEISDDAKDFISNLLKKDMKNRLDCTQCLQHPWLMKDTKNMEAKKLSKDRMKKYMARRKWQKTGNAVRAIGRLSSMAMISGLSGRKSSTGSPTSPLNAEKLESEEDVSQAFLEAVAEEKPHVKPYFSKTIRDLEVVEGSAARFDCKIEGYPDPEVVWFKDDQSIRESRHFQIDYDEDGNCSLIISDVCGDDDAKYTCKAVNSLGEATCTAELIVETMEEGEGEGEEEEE

vertebrate cells = details: cited from earlier work

SMILES: CO[C@@]12[C@H](COC(N)=O)C3=C(C(=O)C(C)=C(N)C3=O)N1C[C@@H]1N[C@@H]12 [mitomycin-C, mitomycin C]
average cell shape after inhibition of proliferation (MSCs [1]; mitomycin C 10 μg/ml for 2 hr before plating): little impact on average cell shape

SMILES: CC(=O)/C(C)=N/O [BDM]
neuronal motility (neuronal motility): block neuronal motility

stability in culture media [2]: up to 48 hours
SMILES: Cc1ccc2c(c1)C(=O)C1(O)CCN(c3ccccc3)C1=N2 (centres unmarked) [blebbistatin]
branching, elongation and spreading of MSCs (MSCs [1]; blebbistatin 50 μM, cells on any substrate): block branching, elongation, and any significant spreading of MSCs
lineage marker expression by MSCs (MSCs [3]): blocked all marker expression
development of cortical stiffness κ ([4]; any matrix): prevented any of the cells from developing
softening of cell membranes (membrane cortical stiffness) ([4]; micropipette aspiration, all gels): more than 3 fold
development of pre-stress σ [5]: prevented any of the cells from developing
actin stress fibers of cells in sandwich overlay (MSCs [6]): lacked any organized actin stress fibers
spindle factor r of cells in sandwich overlay (MSCs [6]): not significantly different from that of the 2D control
matrix-dependent change of nucleus projected area and aspect ratio (hMSCs): inhibited
drug concentration inhibiting NMM II ATPase activity (NMM II ATPase): < 10 µM
effect on myosin light chain kinase [7]: without affecting
cell blebbing, directed cell migration and cytokinesis (vertebrate cells): blocking cell blebbing and rapidly disrupting directed cell migration and cytokinesis
